Results as given in patent US20150283152A1, “Levonorgestrel-Only-Composition For Optimized Oral Contraception With Defined Levonorgestrel Content, Dosage Regimen And Pharmaceutical Preparation” (NAARI AG, priority 2012, published 2015).

Tests used:
[1] = test system: immature male Wistar-rats; experiment: Weight of gonads in immature male rats (antigonadotrophic effect); type: in vivo, rat; conditions: final control 873.5 ± 62.5, p < 0.05
Text: The influence of levonorgestrel on the secretion of gonadotrophins from the pituitary can be estimated by recording the dose-effect relationships in reducing the weight of the gonads of immature male rats. [table]

New Zealand-rabbits = experiment: Pre-ovulatory repeated oral levonorgestrel, rate of fertilized eggs in rabbits (ovulation induced by PMSG/hCG); type: in vivo, rabbit; conditions: for % fertilized (cleaved) eggs: control 90.6
Text: On the last day of LNG-administration, the ovulation was “forced” by intravenous (i.v.) injection of human chorionic gonadotropin (hCG). […] [table]

Luteinizing Hormone (LH) = experiment: Serum levels of Luteinizing Hormone in male castrated rats (radioimmunoassay); type: in vivo, rat; conditions: gonadectomized control 127.0 ± 11.0, p < 0.05
women = conditions: without estrogen; cited from earlier work
[2] = test system: female paired Wistar-rats; experiment: Post-ovulatory subcutaneous levonorgestrel, fertility of female paired rats; type: in vivo, rat
Method: Whereas 20 mg/kg bodyweight (b.w.). […] [table]

[3] = Martinez F et al. 2012; cited from earlier work
[4] = total dosage 0.35 mg/animal p.o. over 3 days
[5] = total dosage 1.75 mg/animal p.o. over 3 days
[6] = s.c. days 1-4 p.i., total dose 0.2 mg/animal/4 days
[7] = s.c. days 1-4 p.i., total dose 2.0 mg/animal/4 days
[8] = s.c. once Day 1 p.i., total dose 4.0 mg/animal

C#C[C@]1(O)CC[C@H]2[C@@H]3CCC4=CC(=O)CC[C@@H]4[C@H]3CC[C@@]21CC [levonorgestrel]
Gonadal weight/mg Mean ± (S.E.M.) ([1]; total dose 0.14 mg/animal over 14 d s.c.): 579.7 ± 44.7 mg | Gonadal weight/mg Mean ± (S.E.M.) ([1]; total dose 0.42 mg/animal over 14 d s.c.): 385.7 ± 74.3 mg | Gonadal weight/mg Mean ± (S.E.M.) ([1]; total dose 1.40 mg/animal over 14 d s.c.): 180.8 ± 105.5 mg | Total no. of eggs vs. total no. of fertilized (cleaved) eggs (New Zealand-rabbits; [4]): 92/78 | % fertilized (cleaved) eggs (New Zealand-rabbits; [4]): 84.8% | Total no. of eggs vs. total no. of fertilized (cleaved) eggs (New Zealand-rabbits; [5]): 81/49 | % fertilized (cleaved) eggs (New Zealand-rabbits; [5]): 60.5% | % fertilized (cleaved) eggs (New Zealand-rabbits; total dosage 5.25 mg/animal p.o. over 3 days): 54.5% | Luteinizing Hormone ng/mL serum (Luteinizing Hormone (LH); total dose 0.14 mg/animal/14 d s.c.): 68.4 ± 15.4 ng/mL serum | Luteinizing Hormone ng/mL serum (Luteinizing Hormone (LH); total dose 1.40 mg/animal/14 d s.c.): 2.2 ± 0.3 ng/mL serum | daily dosage leading to non-acceptable bleeding irregularities (women): over 0.125 mg | No. of treated animals vs. no. of intact pregnancies [2, 6]: 10/9 | Pregnancy inhibition (%) [2, 6]: 10% | No. of treated animals vs. no. of intact pregnancies [2, 7]: 10/0 | Pregnancy inhibition (%) [2, 7]: 100% | No. of treated animals vs. no. of intact pregnancies [2, 8]: 12/12 | Pregnancy inhibition (%) [2, 8]: 0% | risk of venous thromboembolism (VTE) [3]: currently the safest progestin
